From US20250281621A1, “GPC3 APTAMERS AND VARIANTS AND USE THEREOF” (Guardian Therapeutics, LLC, priority 2020, published 2025)

System: NCI-H446 xenograft
Details: 40 mg/kg, I.P. QD for 28 days

% of body weight loss (Day 29): −5.29%
Structure (SMILES): CCc1c2c(nc3ccc(OC(=O)N4CCC(N5CCCCC5)CC4)cc13)-c1cc3c(c(=O)n1C2)COC(=O)[C@]3(O)CC [Irinotecan, irinotecan]
